The results in this text go back to patent US20130261130A1, “NEUROTRYPSIN INHIBITORS” (priority 2010, published 2013).

Molecules are shown by their SMILES.

The target in this experiment is T1, human neurotrypsin (Homo sapiens, UniProt P56730).
T1 sequence (P56730 21-875): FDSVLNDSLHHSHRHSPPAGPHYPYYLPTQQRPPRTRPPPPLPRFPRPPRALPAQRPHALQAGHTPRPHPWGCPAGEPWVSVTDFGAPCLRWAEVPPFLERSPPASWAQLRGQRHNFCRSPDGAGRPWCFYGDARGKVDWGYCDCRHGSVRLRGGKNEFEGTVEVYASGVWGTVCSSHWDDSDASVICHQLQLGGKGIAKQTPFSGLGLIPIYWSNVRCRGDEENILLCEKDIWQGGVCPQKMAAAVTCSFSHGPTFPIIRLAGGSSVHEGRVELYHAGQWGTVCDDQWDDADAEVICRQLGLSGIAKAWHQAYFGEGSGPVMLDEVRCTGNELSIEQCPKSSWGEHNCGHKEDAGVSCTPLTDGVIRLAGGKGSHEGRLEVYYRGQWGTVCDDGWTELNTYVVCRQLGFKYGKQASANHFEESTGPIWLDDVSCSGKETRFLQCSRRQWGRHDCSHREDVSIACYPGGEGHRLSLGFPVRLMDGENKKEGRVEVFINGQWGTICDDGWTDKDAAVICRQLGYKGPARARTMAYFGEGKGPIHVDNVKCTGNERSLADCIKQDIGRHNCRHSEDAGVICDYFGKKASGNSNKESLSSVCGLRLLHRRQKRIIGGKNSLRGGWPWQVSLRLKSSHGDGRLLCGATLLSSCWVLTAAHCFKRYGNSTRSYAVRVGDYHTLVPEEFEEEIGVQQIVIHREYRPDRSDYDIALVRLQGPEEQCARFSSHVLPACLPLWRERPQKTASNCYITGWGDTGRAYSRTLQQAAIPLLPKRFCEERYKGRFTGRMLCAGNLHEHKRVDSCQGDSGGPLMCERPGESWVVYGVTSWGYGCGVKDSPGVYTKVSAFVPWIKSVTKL
Description: Determination of IC50 for human neurotrypsin. It is filed as biochemical. To be noted: human neurotrypsin; method of WO 2006/1103261; read-out: Neurotrypsin IC50. The procedure:
Assessment of the potency of compounds of examples 1-311 in inhibiting the enzymatic activity of human neurotrypsin was performed according to the method described in patent application WO 2006/1103261

One may read the IC50 as the concentration that gives 50% inhibition. On to `O=C(O)c1cc(C(=O)N2CCC(Cc3ccc(F)cc3)CC2)ccc1NC(=O)c1sc2ccccc2c1Cl` [Example 114], for which the IC50 was 3 µM. On to `O=C(Nc1ccc(Oc2cccnc2)cc1)c1ccc(C(=O)O)c(NC(=O)c2sc3ccccc3c2Cl)c1` [Example 84], for which the IC50 was 4.8 µM. With `CC(NC(=O)c1ccc(NC(=O)c2ccc(-c3nc4cc(Cl)c(Cl)cc4[nH]3)cc2)c(C(=O)O)c1)c1ccc(Cl)cc1` (stereo not drawn) [Example 133] the figure was 1.9 µM; with `O=C(Nc1ccc(Cl)cn1)c1ccc(C(=O)O)c(NC(=O)c2sc3ccccc3c2Cl)c1` [Example 16, 2-(3-Chlorobenzo[b]-thiophene-2-carboxamido)-4-(5-chloropyridin-2-yl-carbamoyl)benzoic acid], 8 µM; with `O=C(NCCc1ccccc1)c1ccc(NC(=O)c2ccc(-c3nc4cc(Cl)c(Cl)cc4[nH]3)cc2)c(C(=O)O)c1` [Example 123], 3.5 µM.

As for `CCCCCCCNC(=O)c1ccc(NC(=O)c2ccc(-c3nc4cc(Cl)c(Cl)cc4[nH]3)cc2)c(C(=O)O)c1` [Example 137], the IC50 was found to be 2.4 µM. The result for `O=C(NC1Cc2ccccc2C1)c1ccc(NC(=O)c2sc3ccccc3c2Cl)c(C(=O)O)c1` [Example 159, 2-(3-Chlorobenzo[b]-thiophene-2-carboxamido)-5-(indan-2-ylcarbamoyl)benzoic acid] reads 6.5 µM.

With `O=C(O)c1ccc(C(=O)Nc2ccc(Cl)cc2)c(NC(=O)c2ccc(-c3ccccc3)s2)c1` [Example 25, 4-(4-Chlorophenyl-carbamoyl)-3-(5-phenyl-thiophene-2-carboxamido)-benzoic acid], the IC50 was > 150 µM.

With `O=C(Nc1cc(N2CC(c3ccc(Cl)cc3)CC2=O)ccc1C(=O)O)c1ccc(-c2ccc(Cl)cc2)s1` (stereo not drawn) [Example 283], the IC50 worked out at 3.4 µM.

Consider `O=C(Nc1cccc(Oc2ccccc2)c1)c1ccc(C(=O)O)c(NC(=O)c2sc3ccccc3c2Cl)c1` [Example 65], for which the IC50 amounted to 7.3 µM.

Turning to `O=C(Nc1ccc(C(=O)N2CCC(c3ccc(F)cc3)CC2)cc1C(=O)O)c1ccc(-c2nc3cc(Cl)c(Cl)cc3[nH]2)cc1` [Example 38, 2-(4-(5,6-Dichloro-1H-benzo[d]imidazol-2-yl)-benzamido)-5-(4-(4-fluorophenyl)piperidine-1-carbonyl)benzoic acid], the IC50 was 4.8 µM. With `CN(C(=O)c1ccc(C(=O)O)c(NC(=O)c2sc3ccccc3c2Cl)c1)c1cc2ccccc2s1` [Example 88] the figure was 24.8 µM. With `O=C(O)c1ccc(C(=O)N2CCC(Oc3ccccc3)C2)cc1NC(=O)c1sc2ccccc2c1Cl` (stereo not drawn) [Example 101] the figure was 9 µM. As to `CC(C)CCN(C)C(=O)c1ccc(NC(=O)c2ccc(-c3nc4cc(Cl)c(Cl)cc4[nH]3)cc2)c(C(=O)O)c1` [Example 43, 2-(4-(5,6-Dichloro-1H-benzo[d]imidazol-2-yl)-benzamido)-5-(N-isopentyl-N-methylcarbamoyl)benzoic acid], the IC50 came to 3.9 µM. The result for `CC(Nc1ccc(C(=O)O)c(NC(=O)c2sc3ccccc3c2Cl)c1)c1ccc(Cl)cc1` (stereo not drawn) [Example 290] reads 4.1 µM; that for `O=C(O)c1ccc(C(=O)Nc2ccc(Cl)cc2)c(NC(=O)c2sc3ccccc3c2Cl)c1` [Example 188, 3-(3-Chlorobenzo[b]-thiophene-2-carboxamido)-4-(4-chlorophenylcarbamoyl)-benzoic acid], 6.8 µM. The result for `O=C(Nc1ccc(Sc2ccc(Cl)cc2)cc1C(=O)O)c1ccc(-c2ccc(Cl)cc2)s1` [Example 293] reads 8.7 µM. With `CC(C)(C)Oc1ccc(NC(=O)c2ccc(C(=O)O)c(NC(=O)c3sc4ccccc4c3Cl)c2)cc1` [Example 78] the figure was 19.2 µM; with `O=C(NCC1CCCCC1)c1ccc(NC(=O)c2ccc(-c3nc4cc(Cl)c(Cl)cc4[nH]3)cc2)c(C(=O)O)c1` [Example 126], 1.2 µM. For the molecule `O=C(Nc1ccc(Cl)cc1)c1ccc(NC(=O)c2ccc(-c3nc4cc(Cl)ccc4[nH]3)cc2)c(C(=O)O)c1` [Example 37, 2-(4-(5-Chloro-1H-benzo[d]-imidazol-2-yl)benzamido)-5-(4-chlorophenylcarbamoyl)-benzoic acid], the IC50 was found to be 1.6 µM. The result for `O=C(O)c1cc(NC(=O)c2sc3ccccc3c2Cl)ccc1C(=O)Nc1ccc(Cl)cc1` [Example 271] reads 14.2 µM. The result for `CC(C)CNC(=O)c1ccc(NC(=O)c2ccc(-c3nc4cc(Cl)c(Cl)cc4[nH]3)cc2)c(C(=O)O)c1` [Example 130] reads 7.6 µM; that for `O=C(NCc1ccc(Cl)s1)c1ccc(C(=O)O)c(NC(=O)c2sc3ccccc3c2Cl)c1` [Example 90], 4.9 µM; that for `CC(C)CN(CC(C)C)C(=O)c1ccc(NC(=O)c2ccc(-c3nc4cc(Cl)c(Cl)cc4[nH]3)c(O)c2)c(C(=O)O)c1` [Example 42, 2-(4-(5,6-Dichloro-1H-benzo[d]imidazol-2-yl)-3-hydroxybenzamido)-5-(diisobutylcarbamoyl)benzoic acid], 4.4 µM. With `COc1ccc(C2CCN(C(=O)c3ccc(NC(=O)c4sc5ccccc5c4Cl)c(C(=O)O)c3)CC2)cc1` [Example 116], the IC50 came out at 2.4 µM. As for `O=C(O)c1ccc(C(=O)N2CCC(Cc3ccccc3)CC2)cc1NC(=O)c1sc2ccccc2c1Cl` [Example 24, 4-(4-Benzylpiperidine-1-carbonyl)-2-(3-chloro-benzo[b]thiophene-2-carboxamido)benzoic acid], the IC50 came out at 4 µM. The result for `O=C(Nc1ccc(Cl)cc1)c1ccc(NC(=O)c2ccc(-c3nc4ccccc4[nH]3)cc2)c(C(=O)O)c1` [Example 36, 2-(4-(1H-Benzo[d]imidazol-2-yl)benzamido)-5-(4-chloro-phenylcarbamoyl)benzoic acid] reads 3.5 µM.
